The text below walks through data of PubChem BioAssay (NCI).

Some test systems named below: SNB-75 CNS; EKVX NSCLC; K-562 leukemia; SN12C renal; TK-10 renal; MOLT-4 leukemia; LOX IMVI melanoma; NCI-H226 lung; IGROV1 ovarian; SK-OV-3 ovarian.
What all share (experiment): NCI-60 cell line screen, 48 h

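Interpolation was linear, between the two tested concentrations surrounding the appropriate level; five concentrations were tested over 48 hours in 96-well plates. GI50 = concentration required for 50% inhibition of growth. TGI marks complete inhibition of growth.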 A value given as a limit tells only on which side of the number the result lay.

As to `Nc1ncnc2c1ccn2-c1cccc(NC(=O)c2ccc(N3CCOCC3)c(C(F)(F)F)c2)c1`, the GI50 in the experiment on SNB-75 CNS was 1.31 µM; with EKVX NSCLC, 3.2 µM; in the experiment with K-562 leukemia, 2.41 µM; in the experiment on SN12C renal, 2.9 µM; with TK-10 renal it was 1.92 µM; with MOLT-4 leukemia, 3.05 µM. The values for the GI50 with LOX IMVI melanoma, with NCI-H226 lung and in the experiment with IGROV1 ovarian were 3.1 µM, 3.51 µM and 3.83 µM, respectively. Also, the TGI with SNB-75 CNS was found to be 9.02 µM; in the experiment on EKVX NSCLC it was 22.1 µM; with K-562 leukemia, 16 µM; in the experiment on SN12C renal it was 9.64 µM; in the experiment on TK-10 renal it was 6.04 µM; in the experiment with MOLT-4 leukemia, 20.1 µM. The TGI in the experiment with LOX IMVI melanoma was 12.7 µM; with NCI-H226 lung, 14.3 µM; with IGROV1 ovarian, 33.2 µM.

In the case of `C#CCNC(=O)CC[C@@H](C)[C@H]1CC[C@H]2[C@@H]3CC[C@@H]4CC(=O)CC[C@]4(C)[C@H]3CC[C@]12C`, the GI50 was 10.9 µM in the experiment on SNB-75 CNS; 20.1 µM in the experiment with EKVX NSCLC; 5.19 µM in the experiment on K-562 leukemia; 13.2 µM in the experiment on SN12C renal; 18 µM with TK-10 renal; 10.3 µM with MOLT-4 leukemia. Moreover, the GI50 in the experiment with LOX IMVI melanoma was 17.5 µM; with NCI-H226 lung, 14.8 µM; with IGROV1 ovarian, 0.649 µM; in the experiment with SK-OV-3 ovarian, 28.8 µM. Moreover, the TGI in the experiment with SNB-75 CNS is 33.5 µM; with EKVX NSCLC, 57.9 µM; in the experiment on K-562 leukemia it was 44.3 µM; in the experiment on SN12C renal, 32.1 µM; in the experiment with TK-10 renal it was 44.5 µM; in the experiment on MOLT-4 leukemia, 43.7 µM. The TGI with LOX IMVI melanoma was 39.8 µM; in the experiment with NCI-H226 lung, 36.2 µM; in the experiment with IGROV1 ovarian, 3.13 µM; with SK-OV-3 ovarian, above 100 µM.

For the molecule `COc1cccc(/C=N/[N-]C(N)=O)c1[O-].[Co+2].[OH3+].c1ccncc1`, the TGI in the experiment on SNB-75 CNS, with EKVX NSCLC, with SN12C renal, in the experiment on MOLT-4 leukemia, in the experiment on LOX IMVI melanoma and in the experiment with NCI-H226 lung was above 100 µM in each case. The TGI in the experiment on IGROV1 ovarian and in the experiment with SK-OV-3 ovarian was above 100 µM throughout.

On to `O=C1OC(c2ccccc2Br)=N/C1=C/c1ccccc1`, for which the TGI was above 100 µM in the experiment with SNB-75 CNS; above 100 µM in the experiment with EKVX NSCLC; above 100 µM with K-562 leukemia; above 100 µM in the experiment on TK-10 renal; above 100 µM in the experiment on MOLT-4 leukemia; 38.8 µM with LOX IMVI melanoma. For the same molecule, the TGI with NCI-H226 lung is 77.9 µM; with IGROV1 ovarian it was above 100 µM; in the experiment on SK-OV-3 ovarian, above 100 µM.

For `c1cc(CSc2ncnc3nc[nH]c23)ccn1`, the TGI in the experiment with SNB-75 CNS, with EKVX NSCLC, in the experiment on K-562 leukemia, in the experiment with SN12C renal, with TK-10 renal and in the experiment with MOLT-4 leukemia was above 100 µM in each case. Besides, the TGI in the experiment on LOX IMVI melanoma, in the experiment on NCI-H226 lung, with IGROV1 ovarian and with SK-OV-3 ovarian was above 100 µM in each case.

For `CC1OC(CO)(n2cnc3c(N)ncnc32)C(O)C1O` (stereo unspecified), the TGI in the experiment with SNB-75 CNS, in the experiment with EKVX NSCLC, in the experiment with K-562 leukemia, in the experiment on SN12C renal, with MOLT-4 leukemia and in the experiment with LOX IMVI melanoma was above 100 µM in each case. Further, the TGI with NCI-H226 lung, with IGROV1 ovarian and with SK-OV-3 ovarian was above 100 µM each time.

For the molecule `COc1cc(N(CCCl)CCCl)ccc1/C=N\NC(=O)c1cccnc1`, the GI50 in the experiment on SNB-75 CNS is 37.1 µM; in the experiment with EKVX NSCLC, 31.2 µM; with K-562 leukemia, 36.6 µM; in the experiment with SN12C renal it was 30 µM; in the experiment on TK-10 renal, 16.9 µM; with MOLT-4 leukemia it was 22.3 µM. Besides, the GI50 with LOX IMVI melanoma is 32.2 µM; in the experiment on NCI-H226 lung, 1.72 µM; with IGROV1 ovarian it was 36 µM. Also, the TGI in the experiment with SNB-75 CNS is above 100 µM; in the experiment with EKVX NSCLC, 87.5 µM; with K-562 leukemia, above 100 µM; with SN12C renal, above 100 µM; with TK-10 renal, 53.5 µM; with MOLT-4 leukemia it was 67.4 µM. Also, the TGI was above 100 µM in the experiment with LOX IMVI melanoma, 9.47 µM in the experiment with NCI-H226 lung and above 100 µM with IGROV1 ovarian.

Turning to `NC(CSCSCC(N)C(=O)O)C(=O)O` (stereo unspecified), the TGI in the experiment with SNB-75 CNS, with EKVX NSCLC, with K-562 leukemia, in the experiment on SN12C renal, in the experiment on MOLT-4 leukemia and with LOX IMVI melanoma was above 225 µM each time. Also, the TGI in the experiment on NCI-H226 lung, with IGROV1 ovarian and with SK-OV-3 ovarian was above 225 µM throughout.

For the molecule `CCCCCCCCCCCCCCCCCCOc1ccccc1COP(=O)(O)OOCC[N+](C)(C)C`, the GI50 in the experiment with SNB-75 CNS is 0.96 µM; in the experiment with EKVX NSCLC it was 1.77 µM; with K-562 leukemia it was 1.23 µM; with SN12C renal it was 1.1 µM; in the experiment with TK-10 renal, 1.35 µM; in the experiment on NCI-H226 lung, 1.16 µM. Further, the GI50 is 0.738 µM in the experiment with IGROV1 ovarian and 2.38 µM in the experiment with SK-OV-3 ovarian. The TGI in the experiment on SNB-75 CNS was 3.51 µM; in the experiment with EKVX NSCLC, 10.3 µM; with K-562 leukemia, 50 µM; in the experiment with SN12C renal it was 3.17 µM; in the experiment on TK-10 renal, 4.49 µM; in the experiment on NCI-H226 lung, 5.54 µM. The TGI worked out at 1.5 µM in the experiment on IGROV1 ovarian and 10.6 µM with SK-OV-3 ovarian.

With `O=c1oc2ccccc2n1P(=O)(Oc1ccc(Cl)cc1)n1c(=O)oc2ccccc21`, the TGI with SNB-75 CNS, with EKVX NSCLC, in the experiment with K-562 leukemia, with SN12C renal, with TK-10 renal and with MOLT-4 leukemia was above 100 µM in each case. Further, the TGI with LOX IMVI melanoma, with NCI-H226 lung, with IGROV1 ovarian and with SK-OV-3 ovarian was above 100 µM in each case.

With `Cc1cc(N=Cc2c(CO)cnc(C)c2O)c(N=Cc2c(CO)cnc(C)c2O)cc1C`, the TGI with SNB-75 CNS, in the experiment with EKVX NSCLC, in the experiment on K-562 leukemia, with SN12C renal, with TK-10 renal and in the experiment on LOX IMVI melanoma was above 100 µM each time. The TGI in the experiment with NCI-H226 lung, in the experiment with IGROV1 ovarian and in the experiment with SK-OV-3 ovarian was above 100 µM each time.

On to `CCOC(=O)c1cc([N+](=O)[O-])c(Sc2ncnc3nc[nH]c23)c([N+](=O)[O-])c1`, for which the TGI with EKVX NSCLC was determined as 15.4 µM; in the experiment on SN12C renal, 30.6 µM; in the experiment with TK-10 renal, 5.81 µM; in the experiment on LOX IMVI melanoma, 17.9 µM; with NCI-H226 lung, 17.3 µM; in the experiment on IGROV1 ovarian, 13.7 µM. The molecule further showed a TGI in the experiment with SK-OV-3 ovarian of 5.04 µM.

Regarding `CON[N+]([O-])=NC(C)C`, the TGI with SNB-75 CNS, in the experiment with EKVX NSCLC, with K-562 leukemia, in the experiment with SN12C renal, in the experiment on TK-10 renal and in the experiment on MOLT-4 leukemia was above 100 µM throughout. Also, the TGI in the experiment with LOX IMVI melanoma, in the experiment with NCI-H226 lung, in the experiment with IGROV1 ovarian and in the experiment with SK-OV-3 ovarian was above 100 µM each time.

As for `O=C1CCC2COc3ccc(O)c1c32` (stereo unspecified), the TGI in the experiment on SNB-75 CNS, with EKVX NSCLC, in the experiment with K-562 leukemia, with SN12C renal, with TK-10 renal and in the experiment on MOLT-4 leukemia was above 100 µM each time. The TGI with LOX IMVI melanoma, with IGROV1 ovarian and in the experiment on SK-OV-3 ovarian was above 100 µM in each case.

For `CC(C)(C)CI`, the TGI in the experiment with SNB-75 CNS was 67.6 µM; in the experiment on EKVX NSCLC, above 100 µM; with K-562 leukemia, 58.4 µM; in the experiment on SN12C renal, 32.4 µM; with TK-10 renal it was above 100 µM; in the experiment on MOLT-4 leukemia, 76.9 µM. Besides, the results for the TGI in the experiment on LOX IMVI melanoma, with IGROV1 ovarian and in the experiment on SK-OV-3 ovarian were 33.4 µM, above 100 µM and above 100 µM, respectively.
